Laboratory results taken from paper PMC5824344 (ACS Chemical Biology, 2017).
pIC50: −log10 of the molar value.

Legend:
Type in all cases: biochemical
[1] = target: T1, Rat liver ER α-glucosidase I (Rattus norvegicus, UniProt O88941); test: Inhibition of isolated rat liver ER α-glucosidase I (anthranilic acid-labelled Glc3Man7GlcNAc2 substrate, HPLC); settings: for pIC50: isolated enzyme in vitro, mean of three measurements
T1 construct: Rat liver ER, I; from tissue; host or cells: liver of male Wistar rats
T1 sequence (O88941 1-834): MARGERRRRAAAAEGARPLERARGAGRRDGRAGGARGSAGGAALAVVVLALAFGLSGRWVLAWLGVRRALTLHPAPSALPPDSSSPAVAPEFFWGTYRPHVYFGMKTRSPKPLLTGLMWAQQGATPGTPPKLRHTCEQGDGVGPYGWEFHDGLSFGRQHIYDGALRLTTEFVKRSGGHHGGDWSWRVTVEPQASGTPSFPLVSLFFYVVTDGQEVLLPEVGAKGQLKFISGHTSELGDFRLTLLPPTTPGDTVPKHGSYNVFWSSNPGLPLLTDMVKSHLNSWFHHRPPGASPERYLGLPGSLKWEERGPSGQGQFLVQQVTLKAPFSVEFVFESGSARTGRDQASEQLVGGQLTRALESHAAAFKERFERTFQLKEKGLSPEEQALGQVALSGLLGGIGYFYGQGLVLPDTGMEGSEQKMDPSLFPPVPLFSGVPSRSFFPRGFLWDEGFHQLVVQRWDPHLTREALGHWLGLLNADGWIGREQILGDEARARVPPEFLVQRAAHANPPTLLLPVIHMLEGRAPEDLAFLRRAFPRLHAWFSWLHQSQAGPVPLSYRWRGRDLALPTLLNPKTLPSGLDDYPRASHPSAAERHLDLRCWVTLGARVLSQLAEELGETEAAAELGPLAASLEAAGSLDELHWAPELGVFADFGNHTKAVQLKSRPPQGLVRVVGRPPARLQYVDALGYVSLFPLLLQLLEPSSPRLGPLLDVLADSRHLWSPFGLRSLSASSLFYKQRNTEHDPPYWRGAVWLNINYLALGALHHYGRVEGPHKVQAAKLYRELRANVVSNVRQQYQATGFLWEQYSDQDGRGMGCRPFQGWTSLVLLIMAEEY
Protocol: (§1) 4 Enzyme Inhibition Assays
(§2) All rat enzymes were isolated from 18-week-old, male Wistar rats, while human lysosomal α-glucosidase was obtained in commercially available form from Sanoﬁ Genzyme. Inhibition of isolated glucosidases was evaluated as described previously. 3 Brieﬂy, maltase, isomaltase, sucrase, and cellobiase were used as partially puriﬁed tissue extracts. Inhibition assays for each enzyme were performed with the respective natural substrate, and release of d-glucose measured by Glucose B-test (Wako Diagnostics). Assays of rat ER α-glucosidase II and human lysosomal α-glucosidase inhibition were conducted with α-p-nitrophenylglucoside as substrate; 400 mm Na2CO3 was added to quench these reactions, and the extent of hydrolysis was evaluated as absorbance at 400 nm by spectrophotometer.
(§3) ER α-glucosidase I inhibition assays were performed using anthranilic acid-labelled Glc3Man7GlcNAc2 as substrate. After terminating the reaction with acetonitrile, protein was removed by cen-trifugation through a 10 kDa molecular weight cut oﬀ ﬁlter. The amount of hydrolysis was then quantiﬁed by normal phase high performance liquid chromatography analysis of unreacted substrate and product (Glc2Man7GlcNAc2).4
(§4) ER α-glucosidase II inhibition assays using native-like substrates were performed using an-thranilic acid-labelled Glc2Man7GlcNAc2 as substrate. After terminating the reaction with acetonitrile, protein was removed by centrifugation through a 10 kDa molecular weight cut oﬀ ﬁlter. The amount of hydrolysis was then quantiﬁed by normal phase high performance liq-uid chromatography analysis of unreacted substrate and both products (Glc1Man7GlcNAc2

[2] = target: T2, Rat liver ER α-glucosidase II (Rattus norvegicus, UniProt A0A8I6GFL3); test: Inhibition of isolated rat liver ER α-glucosidase II (α-p-nitrophenylglucoside substrate); settings: isolated enzyme in vitro; read-out: IC50 with regard to GluII
T2 construct: Rat liver ER, II; from tissue; host or cells: liver of male Wistar rats
T2 sequence (A0A8I6GFL3 33-944): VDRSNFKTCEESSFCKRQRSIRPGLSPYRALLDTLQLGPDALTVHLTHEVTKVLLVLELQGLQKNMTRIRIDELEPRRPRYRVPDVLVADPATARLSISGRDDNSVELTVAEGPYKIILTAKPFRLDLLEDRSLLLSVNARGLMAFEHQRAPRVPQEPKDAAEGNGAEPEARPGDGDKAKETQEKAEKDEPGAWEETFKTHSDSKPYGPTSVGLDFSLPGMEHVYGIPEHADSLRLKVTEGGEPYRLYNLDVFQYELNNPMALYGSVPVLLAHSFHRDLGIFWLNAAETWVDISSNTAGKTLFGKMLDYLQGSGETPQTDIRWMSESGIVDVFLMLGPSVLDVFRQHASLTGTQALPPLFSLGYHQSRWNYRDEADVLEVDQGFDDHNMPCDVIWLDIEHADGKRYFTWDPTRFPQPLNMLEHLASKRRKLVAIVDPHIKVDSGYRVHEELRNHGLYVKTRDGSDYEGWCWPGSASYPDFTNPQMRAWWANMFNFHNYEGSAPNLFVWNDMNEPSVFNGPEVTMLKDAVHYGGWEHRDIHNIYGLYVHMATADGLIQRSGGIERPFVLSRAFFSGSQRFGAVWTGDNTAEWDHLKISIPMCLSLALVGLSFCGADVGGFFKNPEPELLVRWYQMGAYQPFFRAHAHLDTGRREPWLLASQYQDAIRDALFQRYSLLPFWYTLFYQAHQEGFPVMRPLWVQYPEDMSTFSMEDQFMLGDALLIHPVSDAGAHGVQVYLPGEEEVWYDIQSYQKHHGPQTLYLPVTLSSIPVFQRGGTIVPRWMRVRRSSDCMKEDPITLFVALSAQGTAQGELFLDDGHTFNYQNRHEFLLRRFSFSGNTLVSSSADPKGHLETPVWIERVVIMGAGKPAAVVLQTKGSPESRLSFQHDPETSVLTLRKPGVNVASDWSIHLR
T2 sequence (A0A8I6ADW9 1-525 partner): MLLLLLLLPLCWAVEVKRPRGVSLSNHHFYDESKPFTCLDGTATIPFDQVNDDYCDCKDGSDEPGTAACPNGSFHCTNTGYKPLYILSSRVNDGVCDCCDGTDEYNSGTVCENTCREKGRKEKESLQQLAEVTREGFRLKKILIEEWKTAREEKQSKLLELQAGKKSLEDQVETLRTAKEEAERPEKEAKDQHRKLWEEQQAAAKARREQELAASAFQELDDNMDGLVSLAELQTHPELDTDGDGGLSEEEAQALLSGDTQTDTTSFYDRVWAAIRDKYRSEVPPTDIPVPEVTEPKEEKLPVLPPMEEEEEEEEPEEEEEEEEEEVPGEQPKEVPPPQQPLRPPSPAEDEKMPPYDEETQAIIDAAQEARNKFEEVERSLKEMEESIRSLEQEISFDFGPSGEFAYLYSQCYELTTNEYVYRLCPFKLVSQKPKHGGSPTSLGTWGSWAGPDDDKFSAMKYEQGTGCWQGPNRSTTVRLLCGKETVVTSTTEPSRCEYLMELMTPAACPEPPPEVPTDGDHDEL
Protocol: as §1, §2, §3, §4

[3] = target: T3, Rat intestinal isomaltase (Rattus norvegicus, UniProt P23739); test: Inhibition of rat intestinal isomaltase (natural substrate, glucose release); settings: for pIC50: isolated enzyme in vitro, mean of three measurements, read-out: IC50, α-Glucosidase, Rat intestinal isomaltase
T3 construct: from tissue; host or cells: intestine of male Wistar rats, partially purified extract
T3 sequence (P23739 whole entry): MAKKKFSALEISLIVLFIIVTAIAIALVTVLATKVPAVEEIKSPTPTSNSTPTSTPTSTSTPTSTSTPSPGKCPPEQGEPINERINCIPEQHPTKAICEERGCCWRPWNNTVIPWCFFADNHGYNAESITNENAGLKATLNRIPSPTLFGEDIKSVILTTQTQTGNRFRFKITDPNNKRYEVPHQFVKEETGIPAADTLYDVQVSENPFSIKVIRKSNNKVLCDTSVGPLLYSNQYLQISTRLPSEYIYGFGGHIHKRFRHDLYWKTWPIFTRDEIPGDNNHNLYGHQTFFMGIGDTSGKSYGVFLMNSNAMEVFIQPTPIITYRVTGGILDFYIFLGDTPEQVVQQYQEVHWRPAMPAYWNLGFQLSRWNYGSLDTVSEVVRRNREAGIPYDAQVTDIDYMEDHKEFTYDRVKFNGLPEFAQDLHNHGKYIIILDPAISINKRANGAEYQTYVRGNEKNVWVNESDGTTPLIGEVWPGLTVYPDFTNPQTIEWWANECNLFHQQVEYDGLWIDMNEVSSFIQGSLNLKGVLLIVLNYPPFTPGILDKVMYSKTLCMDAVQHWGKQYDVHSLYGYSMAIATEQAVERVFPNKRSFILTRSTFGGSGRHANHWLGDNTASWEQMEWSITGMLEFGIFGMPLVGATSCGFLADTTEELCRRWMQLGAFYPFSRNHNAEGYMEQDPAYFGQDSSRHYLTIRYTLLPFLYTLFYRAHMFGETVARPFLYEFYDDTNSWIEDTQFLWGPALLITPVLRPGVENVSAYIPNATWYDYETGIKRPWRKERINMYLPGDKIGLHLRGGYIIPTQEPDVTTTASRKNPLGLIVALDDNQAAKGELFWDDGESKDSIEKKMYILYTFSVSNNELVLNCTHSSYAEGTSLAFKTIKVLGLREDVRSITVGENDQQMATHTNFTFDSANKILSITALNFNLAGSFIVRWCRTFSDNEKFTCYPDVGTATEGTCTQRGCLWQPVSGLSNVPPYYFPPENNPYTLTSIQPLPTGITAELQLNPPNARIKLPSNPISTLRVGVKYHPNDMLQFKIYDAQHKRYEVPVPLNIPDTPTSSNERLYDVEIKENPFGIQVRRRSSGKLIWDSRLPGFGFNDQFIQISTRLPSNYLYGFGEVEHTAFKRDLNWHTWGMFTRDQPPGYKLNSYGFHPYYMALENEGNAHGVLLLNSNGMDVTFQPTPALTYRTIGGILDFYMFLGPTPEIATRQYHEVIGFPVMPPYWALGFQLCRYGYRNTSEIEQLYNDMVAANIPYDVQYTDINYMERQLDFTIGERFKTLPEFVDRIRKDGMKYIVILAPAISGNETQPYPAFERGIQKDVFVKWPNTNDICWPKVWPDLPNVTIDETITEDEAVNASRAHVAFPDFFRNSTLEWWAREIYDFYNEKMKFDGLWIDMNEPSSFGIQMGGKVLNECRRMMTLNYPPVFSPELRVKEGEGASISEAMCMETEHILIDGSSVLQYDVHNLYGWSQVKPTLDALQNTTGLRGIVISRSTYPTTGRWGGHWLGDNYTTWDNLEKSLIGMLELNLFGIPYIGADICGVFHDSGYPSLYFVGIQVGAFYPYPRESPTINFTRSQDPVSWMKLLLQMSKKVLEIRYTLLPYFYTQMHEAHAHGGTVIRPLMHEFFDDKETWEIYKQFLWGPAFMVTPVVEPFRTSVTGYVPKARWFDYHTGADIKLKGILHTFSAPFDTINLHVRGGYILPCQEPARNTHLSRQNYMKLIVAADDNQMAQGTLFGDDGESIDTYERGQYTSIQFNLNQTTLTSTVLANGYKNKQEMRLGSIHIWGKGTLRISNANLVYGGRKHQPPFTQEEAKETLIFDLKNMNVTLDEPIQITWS
Protocol: as §1, §2, §3, §4

[4] = target: T4, human lysosomal α-glucosidase (Homo sapiens, UniProt P10253); test: Inhibition of human lysosomal α-glucosidase (α-p-nitrophenylglucoside substrate); settings: for pIC50: isolated enzyme in vitro, mean of three measurements, read-out: IC50, α-Glucosidase, Human lysosome
T4 construct: purchased Sanofi Genzyme

Row | SMILES | pIC50 [1] | pIC50 [2] | pIC50 [3] | pIC50 [4] | inhibition at 50 µM ([1]; 50 μM, read-out: inhibition of GluI at the maximum tested concentration) | inhibition at 50 µM ([3]; 50 μM, read-out: inhibition of intestinal isomaltase at the maximum tested concentration) | inhibition at 50 µM ([4]; 50 μM, read-out: inhibition of lysosomal glucosidase at the maximum tested concentration)
1 | CCCCN1CC(O)C(O)C(O)C1CO [Compound 2, N-butyl-D-1-deoxynojirimycin, reference compound] | 6.17 | 4.89 | 5.80 | 5.68 | – | – | –
2 | Cc1c(C)c2c(c(C)c1OCCCCCN1CC(O)C(O)C(O)C1CO)CCC(C)(CCCC(C)CCCC(C)CCCC(C)C)O2 (centres unmarked) [Compound 4, 5′-tocopheroxypentyl-DNJ] | < 4.30 | 5.05 | < 4.30 | < 4.30 | < 50% | < 50% | < 50%
